Experimental data reported in ChEMBL document CHEMBL3785043, “Exploring the purine core of 3'-C-ethynyladenosine (EAdo) in search of novel nucleoside therapeutics” (Bioorg Med Chem Lett, 2016).
Active and inactive are the calls of the source. The rule behind the calls is not given here.

Tests used:
[1] = system: Human respirovirus 3; assay: Antiviral activity against parainfluenza virus 3 at 100 uM; type: functional, organism-based
[2] = system: Human alphaherpesvirus 2; assay: Antiviral activity against HSV-2 lyons at 100 uM; type: functional, organism-based
[3] = system: Human immunodeficiency virus 2; assay: Antiviral activity against HIV2 ROD infected in human MT4 cells at 100 uM preincubated with cells for 30 mins followed by HIV inoculation measured after 4 to 5 days by microscopic analysis; type: functional, organism-based; conditions: ISOLATE ROD
[4] = system: Mammalian orthoreovirus 1; assay: Antiviral activity against Reovirus 1 at 100 uM; type: functional
[5] = system: Human alphaherpesvirus 1; assay: Antiviral activity against Aciclovir-resistant thymidine kinase-deficient HSV-1 KOS at 100 uM; type: functional, organism-based
[6] = system: Sindbis virus; assay: Antiviral activity against Sindbis virus at 100 uM; type: functional, organism-based
[7] = system: Vesicular stomatitis virus; assay: Antiviral activity against VSV at 100 uM; type: functional, organism-based
[8] = system: Influenza A virus; assay: Antiviral activity against Influenza virus A H1N1 at 100 uM; type: functional, organism-based
[9] = system: Human alphaherpesvirus 1; assay: Antiviral activity against HSV-1 KOS at 100 uM; type: functional, organism-based
[10] = system: Human betaherpesvirus 5; assay: Antiviral activity against Human cytomegalovirus Davis at 100 uM; type: functional, organism-based
[11] = system: Human adenovirus 2; assay: Antiviral activity against Adenovirus 2 at 100 uM; type: functional, organism-based
[12] = system: CCRF-CEM; assay: Cytostatic activity against human CEM cells after 72 hrs by Coulter counter method; type: functional, cell-based
[13] = system: HeLa; assay: Cytostatic activity against human HeLa cells after 72 hrs by Coulter counter method; type: functional, cell-based
[14] = system: Respiratory syncytial virus; assay: Antiviral activity against Respiratory syncytial virus long at 100 uM; type: functional, organism-based
[15] = system: Human alphaherpesvirus 2; assay: Antiviral activity against HSV-2 G at 100 uM; type: functional, organism-based; conditions: strain G
[16] = system: L1210; assay: Cytostatic activity against mouse L1210 cells after 48 hrs by Coulter counter method; type: functional, cell-based; conditions: L1210, 48 h
[17] = system: Coxsackievirus B4; assay: Antiviral activity against Coxsackie B4 virus at 100 uM; type: functional, organism-based
[18] = system: Human immunodeficiency virus 1; assay: Antiviral activity against HIV 1 NL4-3 infected in human MT4 cells at 100 uM preincubated with cells for 30 mins followed by HIV inoculation measured after 4 to 5 days by microscopic analysis; type: functional, organism-based
[19] = system: Influenza B virus; assay: Antiviral activity against Influenza virus B at 100 uM; type: functional, organism-based
[20] = system: Human immunodeficiency virus 1; assay: Antiviral activity against HIV1 3B infected in human MT4 cells at 100 uM preincubated with cells for 30 mins followed by HIV inoculation measured after 4 to 5 days by microscopic analysis; type: functional, organism-based
[21] = system: Human betaherpesvirus 5; assay: Antiviral activity against Human cytomegalovirus AD169 at 100 uM; type: functional, organism-based
[22] = system: Influenza A virus; assay: Antiviral activity against Influenza virus A H3N2 at 100 uM; type: functional, organism-based
[23] = system: Punta Toro virus; assay: Antiviral activity against Punta Toro virus at 100 uM; type: functional, organism-based
[24] = system: Vaccinia virus; assay: Antiviral activity against Vaccinia virus Lederle; type: functional, organism-based; conditions: Orthopoxvirus vaccinia
[25] = target: Adenosine receptor A3 (Homo sapiens) (UniProt P0DMS8); assay: Agonist activity at adenosine A3 receptor (unknown origin) assessed as inhibition of forskolin-stimulated adenylyl cyclase activity at 10 uM; type: functional
Sequence of Adenosine receptor A3 (Homo sapiens) (P0DMS8 whole entry): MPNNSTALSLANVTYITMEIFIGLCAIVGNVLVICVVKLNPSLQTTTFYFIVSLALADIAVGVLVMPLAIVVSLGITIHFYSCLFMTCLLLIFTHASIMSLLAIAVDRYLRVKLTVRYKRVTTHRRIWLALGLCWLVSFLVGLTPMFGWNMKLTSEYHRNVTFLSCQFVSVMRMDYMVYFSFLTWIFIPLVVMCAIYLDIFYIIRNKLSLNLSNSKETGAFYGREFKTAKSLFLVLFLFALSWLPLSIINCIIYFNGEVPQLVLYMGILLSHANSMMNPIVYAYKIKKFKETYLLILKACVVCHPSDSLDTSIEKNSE

[26] = system: Human alphaherpesvirus 3; assay: Antiviral activity against VZV Oka; type: functional, organism-based; conditions: Human alphaherpesvirus 3, strain Oka vaccine
[27] = system: Human alphaherpesvirus 3; assay: Antiviral activity against thymidine kinase deficient VZV 07-1; type: functional, organism-based; conditions: Human alphaherpesvirus 3, 07-1

SMILES | Activity [1] | Activity [2] | Activity [3] | Activity [4] | Activity [5] | Activity [6] | Activity [7] | Activity [8] | Activity [9] | Activity [10] | Activity [11] | IC50 [12] [µM] | IC50 [13] [µM] | Activity [14] | Activity [15] | IC50 [16] [µM] | Activity [17] | Activity [18] | Activity [19] | Activity [20] | other results
C#C[C@@]1(O)[C@@H](CO)O[C@@H](n2cnc3c(OC)nc(Cl)nc32)[C@@H]1O | inactive | inactive | inactive | inactive | inactive | inactive | inactive | inactive | inactive | inactive | inactive | 210 | 175 | inactive | inactive | > 250 | inactive | inactive | inactive | inactive | Activity [21]: inactive; Activity [22]: inactive; Activity [23]: inactive
C#C[C@@]1(O)[C@@H](CO)O[C@@H](n2cnc3c(OC)nc(OC)nc32)[C@@H]1O | inactive | inactive | inactive | inactive | inactive | inactive | inactive | inactive | inactive | inactive | inactive | > 250 | > 250 | inactive | inactive | > 250 | inactive | inactive | inactive | inactive | Activity [21]: inactive; Activity [22]: inactive; Activity [23]: inactive
C#C[C@@]1(O)[C@@H](CO)O[C@@H](n2cnc3c(Cl)nc(N)nc32)[C@@H]1O | inactive | inactive | inactive | inactive | inactive | inactive | inactive | inactive | inactive | inactive | inactive | > 250 | > 250 | inactive | inactive | > 250 | inactive | inactive | inactive | inactive | EC50 [24]: 51 µM; Activity [21]: inactive; Activity [22]: inactive; Activity [23]: inactive
C#C[C@@]1(O)[C@@H](CO)O[C@@H](n2cnc3c(NC4CCCC4)nc(Cl)nc32)[C@@H]1O | inactive | inactive | inactive | inactive | inactive | inactive | inactive | inactive | inactive | inactive | inactive | 104 | 150 | inactive | inactive | 170 | inactive | inactive | inactive | inactive | inhibition [25]: 70%; Activity [21]: inactive; Activity [22]: inactive; Activity [23]: inactive
C#C[C@@]1(O)[C@@H](CO)O[C@@H](n2cnc3c(N)nc(N)nc32)[C@@H]1O | inactive | inactive | inactive | inactive | inactive | inactive | inactive | inactive | inactive | inactive | inactive | ≥ 250 | 123 | inactive | inactive | 193 | inactive | inactive | inactive | inactive | Activity [21]: inactive; Activity [22]: inactive; Activity [23]: inactive
C#C[C@@]1(O)[C@@H](CO)O[C@@H](n2cnc3c(N)ncnc32)[C@@H]1O | inactive | inactive | inactive | inactive | inactive | inactive | inactive | inactive | inactive | inactive | inactive | 0.61 | 0.29 | inactive | inactive | 0.73 | inactive | inactive | inactive | inactive | EC50 [24]: 0.35 µM; Activity [21]: inactive; Activity [22]: inactive; Activity [23]: inactive
C#C[C@@]1(O)[C@@H](CO)O[C@@H](n2cnc3c(NCc4cccc(Cl)c4)nc(Cl)nc32)[C@@H]1O | inactive | inactive | inactive | inactive | inactive | inactive | inactive | inactive | inactive | inactive | inactive | 22 | 43 | inactive | inactive | 50 | inactive | inactive | inactive | inactive | EC50 [26]: 4.68 µM; EC50 [27]: 4.68 µM; inhibition [25]: 48%; Activity [21]: inactive; Activity [22]: inactive; Activity [23]: inactive
C#C[C@@]1(O)[C@@H](CO)O[C@@H](n2cnc3c(OC)nc(N)nc32)[C@@H]1O | inactive | inactive | inactive | inactive | inactive | inactive | inactive | inactive | inactive | inactive | inactive | > 250 | > 250 | inactive | inactive | > 250 | inactive | inactive | inactive | inactive | Activity [21]: inactive; Activity [22]: inactive; Activity [23]: inactive
C#C[C@@]1(O)[C@@H](CO)O[C@@H](n2cnc3c(N)nc(Cl)nc32)[C@@H]1O | inactive | inactive | inactive | inactive | inactive | inactive | inactive | inactive | inactive | inactive | inactive | > 250 | > 250 | inactive | inactive | 167 | inactive | inactive | inactive | inactive | Activity [21]: inactive; Activity [22]: inactive; Activity [23]: inactive
